Reference: the supplement of paper PMC10307832

Columns and labels:
Test in all cases: relative viability (nuclei count vs DMSO), 5 days (fraction); higher = more cells survive
VE-821 + Crizotinib = compound: CS(=O)(=O)c1ccc(-c2cnc(N)c(C(=O)Nc3ccccc3)n2)cc1 [VE-821] + C[C@@H](Oc1cc(-c2cnn(C3CCNCC3)c2)cnc1N)c1c(Cl)ccc(F)c1Cl [Crizotinib] (partner 1 µM)
Method in brief: (§1)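 Lung cancer cell lines were seeded in 1536-well plates and dosed by pin tool the next day, with either a single drug or a fixed anchor-drug dose combined with five library-drug doses (not always all listed) spaced in √10 steps. Five days later, one step fixed the cells and stained their nuclei (final 0.05% Triton X-100, 1% formaldehyde, 1 ug/ml Hoechst), and nuclei were counted on 4× images. Relative viability is the nuclei count in treated wells divided by the count in vehicle wells, and each value is the median of duplicate plates.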

Vismodegib + Palbociclib = compound: CS(=O)(=O)c1ccc(C(=O)Nc2ccc(Cl)c(-c3ccccn3)c2)c(Cl)c1 [Vismodegib] + CC(=O)c1c(C)c2cnc(Nc3ccc(N4CCNCC4)cn3)nc2n(C2CCCC2)c1=O [Palbociclib] (partner 0.5 µM)
Method in brief: as §1

Ruxolitinib + Vorinostat = compound: N#CC[C@H](C1CCCC1)n1cc(-c2ncnc3[nH]ccc23)cn1 [Ruxolitinib] + O=C(CCCCCCC(=O)Nc1ccccc1)NO [Vorinostat] (partner 1 µM)
Method in brief: as §1

Cell Line | relative viability (VE-821 + Crizotinib; first compound 0.08 µM) | relative viability (VE-821 + Crizotinib; first compound 0.253 µM) | relative viability (VE-821 + Crizotinib; first compound 0.8 µM) | relative viability (VE-821 + Crizotinib; first compound 2.53 µM) | relative viability (VE-821 + Crizotinib; first compound 8 µM) | relative viability (Vismodegib + Palbociclib; first compound 0.08 µM) | relative viability (Vismodegib + Palbociclib; first compound 0.253 µM) | relative viability (Vismodegib + Palbociclib; first compound 0.8 µM) | relative viability (Vismodegib + Palbociclib; first compound 2.53 µM) | relative viability (Vismodegib + Palbociclib; first compound 8 µM) | relative viability (Ruxolitinib + Vorinostat; first compound 0.08 µM) | relative viability (Ruxolitinib + Vorinostat; first compound 0.253 µM) | relative viability (Ruxolitinib + Vorinostat; first compound 0.8 µM) | relative viability (Ruxolitinib + Vorinostat; first compound 2.53 µM) | relative viability (Ruxolitinib + Vorinostat; first compound 8 µM)
ChaGo-K-1 | 1.18 | 1.18 | 1 | 1.17 | 0.989 | 0.913 | 0.968 | 0.893 | 0.927 | 0.915 | 0.771 | 0.764 | 0.707 | 0.62 | 0.637
HCC-44 | 0.846 | 0.779 | 0.847 | 1.03 | 0.923 | 1.02 | 0.92 | 0.911 | 0.913 | 1.01 | 1.11 | 1.06 | 1.03 | 1.04 | 1.05
NCI-H441 | 1.21 | 0.791 | 0.866 | 0.927 | 0.723 | 0.203 |  | 0.196 | 0.243 | 0.24 | 0.648 | 0.571 | 0.907 | 0.689 | 0.747
NCI-H1299 | 0.986 | 0.967 | 0.919 | 0.903 | 0.786 |  |  |  |  |  |  |  |  |  | 
LU99A | 0.628 | 0.564 | 0.532 | 0.476 | 0.325 | 0.387 | 0.4 | 0.393 | 0.409 | 0.433 | 0.537 | 0.482 | 0.542 | 0.416 | 0.426
NCI-H520 | 0.967 | 0.826 |  | 0.867 | 0.503 | 0.182 | 0.224 | 0.254 | 0.198 | 0.288 | 0.758 | 0.858 | 0.752 | 0.844 | 0.654
EPLC-272H | 1.04 | 0.853 | 0.923 | 1.19 | 0.906 | 0.307 | 0.305 | 0.355 | 0.342 | 0.311 | 0.586 | 0.447 | 0.463 | 0.249 | 0.337
PC-14 | 1.06 | 0.846 | 0.856 | 0.916 | 0.877 | 0.494 | 0.492 | 0.614 | 0.587 | 0.621 |  | 0.788 | 1.05 | 0.658 | 0.652
LCLC-103H | 1.08 | 1 | 0.998 | 1.08 | 1.1 | 0.473 | 0.475 | 0.481 | 0.517 | 0.526 | 0.89 | 0.795 | 0.806 | 0.735 | 0.675
COR-L 105 | 1.03 | 0.678 | 0.582 | 0.546 | 0.385 | 0.425 | 0.415 | 0.369 | 0.405 | 0.388 |  | 0.721 | 0.785 | 0.488 | 0.615
